The assay addresses T1, bradykinin B2 receptor (Cavia porcellus, UniProt O70526).
T1 construct: Ileum segments are isolated from male guinea-pigs; tissue Iffa Credo, l'Arbresle, France (supplier of the animals); host or cells: ileum membranes of male Dunkin-Hartley guinea-pigs
T1 sequence (O70526 1-372): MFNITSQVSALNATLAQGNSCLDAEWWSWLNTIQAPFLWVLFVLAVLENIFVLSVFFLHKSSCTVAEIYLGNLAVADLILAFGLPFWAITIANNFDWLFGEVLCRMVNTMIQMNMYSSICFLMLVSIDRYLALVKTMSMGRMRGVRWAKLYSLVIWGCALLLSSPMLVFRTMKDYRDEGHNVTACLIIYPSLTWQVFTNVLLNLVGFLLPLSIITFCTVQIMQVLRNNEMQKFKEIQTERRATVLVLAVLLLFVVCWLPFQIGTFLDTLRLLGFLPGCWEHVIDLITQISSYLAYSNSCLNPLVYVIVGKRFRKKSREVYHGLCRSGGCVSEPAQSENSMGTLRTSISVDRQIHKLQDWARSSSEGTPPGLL
Briefly: [3H]-bradykinin binding to guinea-pig ileum membranes. The following applies: test compound 10^-6 M, [3H]-bradykinin 120 pM, 90 min at 20° C., read-out: Activity (%): percentage inhibition of the binding of [3H]-bradykinin. The procedure: We used the following pharmacological test: Ileum segments are isolated from male guinea-pigs of the Dunkin-Hartley strain (Iffa Credo, l'Arbresle, France) and ground in the following TES buffer: TES 25 mM, 1,10-phenanthroline 1 mM (pH 6.8), bacitracin 140 μg/ml, BSA 1 g/l. The membranes are then isolated by centrifugation (18,000 rpm; 20 min; 4° C.). The binding studies are carried out in the TES buffer using [^3 H]-bradykinin (120 pM) and 50 μg of membrane protein per test (final volume 500 μl) with an equilibrium time of 90 min at 20° C. The percentage inhibition of the binding of [^3 H]-bradykinin is then determined in the presence of one of the test compounds according to the invention at a concentration of 10^-6 M.
The results obtained (indicated as "activity") from these tests are collated in Table I below with reference to the Examples given in the description.

Regarding `COC(=O)C1CCCN1S(=O)(=O)c1ccc(Cl)c(COc2cccc3ccc(C)nc23)c1Cl` (racemic) [Example 1, N-[[3-[(2-Methylquinolin-8-yl)oxymethyl]-2,4-dichlorophenyl]sulfonyl]-D,L-proline Methyl Ester], the inhibition (commonly how much of the control response was suppressed) at 1 µM turned out to be 97.8%.
On to `Cc1ccc2cccc(OCc3c(Cl)ccc(S(=O)(=O)N4CCCC4C(=O)OCCCN(C)C)c3Cl)c2n1` (racemic) [Example 11, N-[[3-[(2-Methylquinolin-8-yl)oxymethyl]-2,4-dichlorophenyl]sulfonyl]-D,L-proline 3-(dimethylamino)propyl Ester], for which the inhibition at 1 µM was 76.9%.
The figure for `COC(=O)[C@@H]1CCCN1S(=O)(=O)c1ccc(Cl)c(COc2cccc3ccc(C)nc23)c1Cl` [Example 2, N-[[3-[(2-Methylquinolin-8-yl)oxymethyl]-2,4-dichlorophenyl]sulfonyl]-L-proline Methyl Ester] is 98.6%.
For the compound `COCCNC(=O)C1CCCN1S(=O)(=O)c1ccc(Cl)c(COc2cccc3ccc(C)nc23)c1Cl` (stereo not shown) [Example 4, 1-[[3-[(2-Methylquinolin-8-yl)oxymethyl]-2,4-dichlorophenyl]sulfonyl]-N-[2-methoxyethyl]-2-pyrrolidinecarboxamide], the inhibition at 1 µM came out at 92.6%.
Next, `Cc1ccc2cccc(OCc3c(Cl)ccc(S(=O)(=O)N4CCCC4C(=O)NCCO)c3Cl)c2n1` (stereo not shown) [Example 5, 1-[[3-[(2-Methylquinolin-8-yl)oxymethyl]-2,4-dichlorophenyl]sulfonyl]-N-[2-hydroxyethyl]-2-pyrrolidinecarboxamide]: 90.1%; `Cc1ccc2cccc(OCc3c(Cl)ccc(S(=O)(=O)N4CCCC4C(=O)NCCCO)c3Cl)c2n1` (stereo not shown) [Example 6]: 90.9%.
The figure for `Cc1ccc2cccc(OCc3c(Cl)ccc(S(=O)(=O)N4CCCC4C(=O)NCCCCCO)c3Cl)c2n1` (stereo not shown) [Example 7, 1-[[3-[(2-Methylquinolin-8-yl)oxymethyl]-2,4-dichlorophenyl]sulfonyl]-N-[5-hydroxypentyl]-2-pyrrolidinecarboxamide] is 97.8%; for `Cc1ccc2cccc(OCc3c(Cl)ccc(S(=O)(=O)N4CCCC4C(=O)NCCN(C)C)c3Cl)c2n1` (stereo not shown) [Example 8, 1-[[3-[(2-Methylquinolin-8-yl)oxymethyl]-2,4-dichlorophenyl]sulfonyl]-N-[2-dimethylaminoethyl]-2-pyrrolidinecarboxamide Dihydrochioride] it is 95.5%; for `Cc1ccc2cccc(OCc3c(Cl)ccc(S(=O)(=O)N4CCCC4C(=O)NCCCN)c3Cl)c2n1` (stereo not shown) [Example 9, 1-[[3-[(2-Methylquinolin-8-yl)oxymethyl]-2,4-dichlorophenyl]sulfonyl]-N-[3-aminopropyl]-2-pyrrolidinecarboxamide] it is 97.6%.
Next, `Cc1ccc2cccc(OCc3c(Cl)ccc(S(=O)(=O)N4CCCC4C(=O)NCc4ccccc4)c3Cl)c2n1` (stereo not shown) [Example 10, 1-[[3-[(2-Methylquinolin-8-yl)oxymethyl]-2,4-dichlorophenyl]sulfonyl]-N-[phenylmethyl]-2-pyrrolidinecarboxamide]: 96.4%.
On to `CCNC(=O)[C@@H]1CCCN1S(=O)(=O)c1ccc(Cl)c(COc2cccc3ccc(C)nc23)c1Cl` [Example 12, 1-[[3-[(2-Methylquinolin-8-yl)oxymethyl]-2,4-dichlorophenyl]sulfonyl]-N-ethyl-2-(S)-pyrrolidinecarboxamide], for which the inhibition at 1 µM is 98.5%.
In the case of `CC(=O)NC1CCN(S(=O)(=O)c2ccc(Cl)c(COc3cccc4ccc(C)nc34)c2Cl)C1` (stereo not shown) [Example 13, 3-[(1-Oxoethyl)amino]-1-[[3-[(2-methylquinolin-8-yl)oxymethyl]-2,4-dichlorophenyl]sulfonyl]pyrrolidine], the inhibition at 1 µM worked out at 98.6%.
Next, `Cc1ccc2cccc(OCc3c(Cl)ccc(S(=O)(=O)N4CCC(O)C4)c3Cl)c2n1` (stereo not shown) [Example 14, 3-Hydroxy-1-[[3-[(2-methylquinolin-8-yl)oxymethyl]-2,4-dichlorophenyl]-sulfonyl]pyrrolidine]: 94%; `Cc1ccc2cccc(OCc3c(Cl)ccc(S(=O)(=O)N4CCSC4)c3Cl)c2n1` [Example 15, 3-[[3-[(2-Methylquinolin-8-yl)oxymethyl]-2,4-dichlorophenyl]sulfonyl]-thiazolidine]: 94.9%; `Cc1ccc2cccc(OCc3c(Cl)ccc(S(=O)(=O)N4CCCC4)c3Cl)c2n1` [Example 16, 1-[[3-[(2-Methylquinolin-8-yl)oxymethyl]-2,4-dichlorophenyl]sulfonyl]-pyrrolidine]: 90.1%.
`Cc1ccc2cccc(OCc3c(Cl)ccc(S(=O)(=O)n4cccc4)c3Cl)c2n1` [Example 17, 1-[[3-[(2-Methylquinolin-8-yl)oxymethyl]-2,4-dichlorophenyl]sulfonyl]pyrrole]: the inhibition at 1 µM amounted to 93.8%.

Source of the values: patent publication US6080758A, “Benzenesulfonamide derivatives as bradykinin antagonists” (Fournier Industrie et Sante, priority 1995, dated 2000).
